In ChEMBL document CHEMBL3045434, “Synthesis, characterization, and biological evaluation of novel thiazole and pyrazole derivatives of quinoline-4-carboxylic acid as potential antimicrobial agents” (2013):
Converted amounts (≈) assume the structure as drawn.

What was measured:
Type in all cases: functional
Aspergillus niger [1] = assay: Antifungal activity against Aspergillus niger MTCC 872 by disc diffusion method
Escherichia coli [2] = assay: Antibacterial activity against Escherichia coli MTCC 739 by two-fold serial dilution method
Staphylococcus aureus [3] = assay: Antibacterial activity against Staphylococcus aureus ATCC 9144 by disk diffusion method
Staphylococcus aureus [4] = assay: Antibacterial activity against Staphylococcus aureus ATCC 9144 by two-fold serial dilution method
Bacillus subtilis [5] = assay: Antibacterial activity against Bacillus subtilis ATCC 6633 by disk diffusion method
Pseudomonas aeruginosa [6] = assay: Antibacterial activity against Pseudomonas aeruginosa ATCC 25615 by disc diffusion method
Escherichia coli [7] = assay: Antibacterial activity against Escherichia coli MTCC 739 by disc diffusion method
Aspergillus fumigatus [8] = assay: Antifungal activity against Aspergillus fumigatus MTCC 343 by two-fold serial dilution method
Aspergillus fumigatus [9] = assay: Antifungal activity against Aspergillus fumigatus MTCC 343 by disk diffusion method
Aspergillus niger [10] = assay: Antifungal activity against Aspergillus niger MTCC 872 by two-fold serial dilution method
Bacillus subtilis [11] = assay: Antibacterial activity against Bacillus subtilis ATCC 6633 by two-fold serial dilution method
Candida albicans [12] = assay: Antifungal activity against Candida albicans ATCC 24433 by two-fold serial dilution method
Pseudomonas aeruginosa [13] = assay: Antibacterial activity against Pseudomonas aeruginosa ATCC 25615 by two-fold serial dilution method
Candida albicans [14] = assay: Antifungal activity against Candida albicans ATCC 24433 by disk diffusion method

## GENTAMICIN
Aspergillus niger [1]
  inhibition zone (IZ): 18 mm
Escherichia coli [2]
  MIC: 25 µg/mL
Staphylococcus aureus [3]
  inhibition zone (IZ): 22 mm
Staphylococcus aureus [4]
  MIC: 6.25 µg/mL
Bacillus subtilis [5]
  inhibition zone (IZ): 22 mm
Pseudomonas aeruginosa [6]
  inhibition zone (IZ): 23 mm
Escherichia coli [7]
  inhibition zone (IZ): 20 mm

## Cc1ccc(-c2cc(C(=O)O)c3ccccc3[n+]2C/C(=N/N=C2/N=C(c3ccccc3)CS2)c2ccccc2)cc1.[I-]
Aspergillus niger [1]
  diameter of the inhibition zone (DIZ): 7 mm
Escherichia coli [2]
  MIC: > 100 µg/mL
Aspergillus fumigatus [8]
  MIC: > 100 µg/mL
Aspergillus fumigatus [9]
  diameter of the inhibition zone (DIZ): 8 mm
Staphylococcus aureus [3]
  diameter of the inhibition zone (DIZ): 14 mm
Aspergillus niger [10]
  MIC: > 100 µg/mL
Bacillus subtilis [11]
  MIC: > 100 µg/mL
Staphylococcus aureus [4]
  MIC: 25 µg/mL
Bacillus subtilis [5]
  diameter of the inhibition zone (DIZ): 9 mm
Pseudomonas aeruginosa [6]
  diameter of the inhibition zone (DIZ): 8 mm
Candida albicans [12]
  MIC: 25 µg/mL
Escherichia coli [7]
  diameter of the inhibition zone (DIZ): 11 mm
Pseudomonas aeruginosa [13]
  MIC: > 100 µg/mL
Candida albicans [14]
  diameter of the inhibition zone (DIZ): 17 mm

## Cc1ccc(-c2nc3ccccc3c3c2c(-c2ccccc2)c(-c2ccccc2)n2c(=O)[nH]nc32)cc1
Aspergillus niger [1]
  diameter of the inhibition zone (DIZ): 6 mm
Escherichia coli [2]
  MIC: > 100 µg/mL
Aspergillus fumigatus [8]
  MIC: > 100 µg/mL
Aspergillus fumigatus [9]
  diameter of the inhibition zone (DIZ): 9 mm
Staphylococcus aureus [3]
  diameter of the inhibition zone (DIZ): 11 mm
Aspergillus niger [10]
  MIC: > 100 µg/mL
Bacillus subtilis [11]
  MIC: 50 µg/mL (≈ 104 µM)
Staphylococcus aureus [4]
  MIC: 50 µg/mL (≈ 104 µM)
Bacillus subtilis [5]
  diameter of the inhibition zone (DIZ): 18 mm
Pseudomonas aeruginosa [6]
  diameter of the inhibition zone (DIZ): 9 mm
Candida albicans [12]
  MIC: 50 µg/mL (≈ 104 µM)
Escherichia coli [7]
  diameter of the inhibition zone (DIZ): 6 mm
Pseudomonas aeruginosa [13]
  MIC: > 100 µg/mL
Candida albicans [14]
  diameter of the inhibition zone (DIZ): 14 mm

## Nc1ccc(C2=N/C(=N/N=C(/C[n+]3c(-c4ccc(Cl)cc4)cc(C(=O)O)c4ccccc43)c3ccccc3)SC2)cc1.[I-]
Aspergillus niger [1]
  diameter of the inhibition zone (DIZ): 6 mm
Escherichia coli [2]
  MIC: > 100 µg/mL
Aspergillus fumigatus [8]
  MIC: > 100 µg/mL
Aspergillus fumigatus [9]
  diameter of the inhibition zone (DIZ): 9 mm
Staphylococcus aureus [3]
  diameter of the inhibition zone (DIZ): 34 mm
Aspergillus niger [10]
  MIC: > 100 µg/mL
Bacillus subtilis [11]
  MIC: > 100 µg/mL
Staphylococcus aureus [4]
  MIC: 3.12 µg/mL
Bacillus subtilis [5]
  diameter of the inhibition zone (DIZ): 7 mm
Pseudomonas aeruginosa [6]
  diameter of the inhibition zone (DIZ): 8 mm
Candida albicans [12]
  MIC: > 100 µg/mL
Escherichia coli [7]
  diameter of the inhibition zone (DIZ): 7 mm
Pseudomonas aeruginosa [13]
  MIC: > 100 µg/mL
Candida albicans [14]
  diameter of the inhibition zone (DIZ): 7 mm

## S=c1[nH]nc2c3c(c(-c4ccccc4)nc4ccccc43)c(-c3ccccc3)c(-c3ccccc3)n12
Aspergillus niger [1]
  diameter of the inhibition zone (DIZ): 6 mm
Escherichia coli [2]
  MIC: 50 µg/mL (≈ 104 µM)
Aspergillus fumigatus [8]
  MIC: > 100 µg/mL
Aspergillus fumigatus [9]
  diameter of the inhibition zone (DIZ): 7 mm
Staphylococcus aureus [3]
  diameter of the inhibition zone (DIZ): 8 mm
Aspergillus niger [10]
  MIC: > 100 µg/mL
Bacillus subtilis [11]
  MIC: 12.5 µg/mL (≈ 26 µM)
Staphylococcus aureus [4]
  MIC: > 100 µg/mL
Bacillus subtilis [5]
  diameter of the inhibition zone (DIZ): 21 mm
Pseudomonas aeruginosa [6]
  diameter of the inhibition zone (DIZ): 8 mm
Candida albicans [12]
  MIC: > 100 µg/mL
Escherichia coli [7]
  diameter of the inhibition zone (DIZ): 18 mm
Pseudomonas aeruginosa [13]
  MIC: > 100 µg/mL
Candida albicans [14]
  diameter of the inhibition zone (DIZ): 8 mm

## Nc1ccc(C2=N/C(=N/N=C(/C[n+]3c(-c4ccccc4)cc(C(=O)O)c4ccccc43)c3ccccc3)SC2)cc1.[I-]
Aspergillus niger [1]
  diameter of the inhibition zone (DIZ): 7 mm
Escherichia coli [2]
  MIC: > 100 µg/mL
Aspergillus fumigatus [8]
  MIC: > 100 µg/mL
Aspergillus fumigatus [9]
  diameter of the inhibition zone (DIZ): 6 mm
Staphylococcus aureus [3]
  diameter of the inhibition zone (DIZ): 24 mm
Aspergillus niger [10]
  MIC: > 100 µg/mL
Bacillus subtilis [11]
  MIC: > 100 µg/mL
Staphylococcus aureus [4]
  MIC: 6.25 µg/mL
Bacillus subtilis [5]
  diameter of the inhibition zone (DIZ): 9 mm
Pseudomonas aeruginosa [6]
  diameter of the inhibition zone (DIZ): 9 mm
Candida albicans [12]
  MIC: 3.12 µg/mL
Escherichia coli [7]
  diameter of the inhibition zone (DIZ): 8 mm
Pseudomonas aeruginosa [13]
  MIC: > 100 µg/mL
Candida albicans [14]
  diameter of the inhibition zone (DIZ): 36 mm

## S=c1[nH]nc2c3c(c(-c4ccc(Cl)cc4)nc4ccccc43)c(-c3ccccc3)c(-c3ccccc3)n12
Aspergillus niger [1]
  diameter of the inhibition zone (DIZ): 6 mm
Escherichia coli [2]
  MIC: > 100 µg/mL
Aspergillus fumigatus [8]
  MIC: > 100 µg/mL
Aspergillus fumigatus [9]
  diameter of the inhibition zone (DIZ): 6 mm
Staphylococcus aureus [3]
  diameter of the inhibition zone (DIZ): 20 mm
Aspergillus niger [10]
  MIC: > 100 µg/mL
Bacillus subtilis [11]
  MIC: > 100 µg/mL
Staphylococcus aureus [4]
  MIC: 12.5 µg/mL (≈ 24.3 µM)
Bacillus subtilis [5]
  diameter of the inhibition zone (DIZ): 8 mm
Pseudomonas aeruginosa [6]
  diameter of the inhibition zone (DIZ): 13 mm
Candida albicans [12]
  MIC: 25 µg/mL (≈ 48.5 µM)
Escherichia coli [7]
  diameter of the inhibition zone (DIZ): 7 mm
Pseudomonas aeruginosa [13]
  MIC: 50 µg/mL (≈ 97.1 µM)
Candida albicans [14]
  diameter of the inhibition zone (DIZ): 18 mm

## O=C(O)c1cc(-c2ccccc2)[n+](C/C(=N/N=C2/N=C(c3ccccc3)CS2)c2ccccc2)c2ccccc12.[I-]
Aspergillus niger [1]
  diameter of the inhibition zone (DIZ): 14 mm
Escherichia coli [2]
  MIC: > 100 µg/mL
Aspergillus fumigatus [8]
  MIC: 25 µg/mL
Aspergillus fumigatus [9]
  diameter of the inhibition zone (DIZ): 12 mm
Staphylococcus aureus [3]
  diameter of the inhibition zone (DIZ): 18 mm
Aspergillus niger [10]
  MIC: 12.5 µg/mL
Bacillus subtilis [11]
  MIC: > 100 µg/mL
Staphylococcus aureus [4]
  MIC: 25 µg/mL
Bacillus subtilis [5]
  diameter of the inhibition zone (DIZ): 10 mm
Pseudomonas aeruginosa [6]
  diameter of the inhibition zone (DIZ): 9 mm
Candida albicans [12]
  MIC: > 50 µg/mL
Escherichia coli [7]
  diameter of the inhibition zone (DIZ): 9 mm
Pseudomonas aeruginosa [13]
  MIC: > 100 µg/mL
Candida albicans [14]
  diameter of the inhibition zone (DIZ): 10 mm

## OC(Cn1cncn1)(Cn1cncn1)c1ccc(F)cc1F [FLUCONAZOLE]
Candida albicans [12]
  MIC: 6.25 µg/mL (≈ 20.4 µM)
Candida albicans [14]
  diameter of the inhibition zone (DIZ): 21 mm

## O=c1[nH]nc2c3c(c(-c4ccc(Cl)cc4)nc4ccccc43)c(-c3ccccc3)c(-c3ccccc3)n12
Aspergillus niger [1]
  diameter of the inhibition zone (DIZ): 8 mm
Escherichia coli [2]
  MIC: > 100 µg/mL
Aspergillus fumigatus [8]
  MIC: > 100 µg/mL
Aspergillus fumigatus [9]
  diameter of the inhibition zone (DIZ): 6 mm
Staphylococcus aureus [3]
  diameter of the inhibition zone (DIZ): 9 mm
Aspergillus niger [10]
  MIC: > 100 µg/mL
Bacillus subtilis [11]
  MIC: > 100 µg/mL
Staphylococcus aureus [4]
  MIC: > 100 µg/mL
Bacillus subtilis [5]
  diameter of the inhibition zone (DIZ): 11 mm
Pseudomonas aeruginosa [6]
  diameter of the inhibition zone (DIZ): 6 mm
Candida albicans [12]
  MIC: 12.5 µg/mL (≈ 25.1 µM)
Escherichia coli [7]
  diameter of the inhibition zone (DIZ): 6 mm
Pseudomonas aeruginosa [13]
  MIC: > 100 µg/mL
Candida albicans [14]
  diameter of the inhibition zone (DIZ): 24 mm

## Cc1ccc(-c2nc3ccccc3c3c2c(-c2ccccc2)c(-c2ccccc2)n2c(=S)[nH]nc32)cc1
Aspergillus niger [1]
  diameter of the inhibition zone (DIZ): 7 mm
Escherichia coli [2]
  MIC: > 100 µg/mL
Aspergillus fumigatus [8]
  MIC: > 100 µg/mL
Aspergillus fumigatus [9]
  diameter of the inhibition zone (DIZ): 6 mm
Staphylococcus aureus [3]
  diameter of the inhibition zone (DIZ): 6 mm
Aspergillus niger [10]
  MIC: > 100 µg/mL
Bacillus subtilis [11]
  MIC: 25 µg/mL (≈ 50.5 µM)
Staphylococcus aureus [4]
  MIC: > 100 µg/mL
Bacillus subtilis [5]
  diameter of the inhibition zone (DIZ): 19 mm
Pseudomonas aeruginosa [6]
  diameter of the inhibition zone (DIZ): 6 mm
Candida albicans [12]
  MIC: > 100 µg/mL
Escherichia coli [7]
  diameter of the inhibition zone (DIZ): 6 mm
Pseudomonas aeruginosa [13]
  MIC: > 100 µg/mL
Candida albicans [14]
  diameter of the inhibition zone (DIZ): 6 mm

## O=c1[nH]nc2c3c(c(-c4ccccc4)nc4ccccc43)c(-c3ccccc3)c(-c3ccccc3)n12
Aspergillus niger [1]
  diameter of the inhibition zone (DIZ): 6 mm
Escherichia coli [2]
  MIC: 25 µg/mL (≈ 53.8 µM)
Aspergillus fumigatus [8]
  MIC: 25 µg/mL (≈ 53.8 µM)
Aspergillus fumigatus [9]
  diameter of the inhibition zone (DIZ): 12 mm
Staphylococcus aureus [3]
  diameter of the inhibition zone (DIZ): 8 mm
Aspergillus niger [10]
  MIC: > 100 µg/mL
Bacillus subtilis [11]
  MIC: > 100 µg/mL
Staphylococcus aureus [4]
  MIC: > 100 µg/mL
Bacillus subtilis [5]
  diameter of the inhibition zone (DIZ): 8 mm
Pseudomonas aeruginosa [6]
  diameter of the inhibition zone (DIZ): 12 mm
Candida albicans [12]
  MIC: > 100 µg/mL
Escherichia coli [7]
  diameter of the inhibition zone (DIZ): 21 mm
Pseudomonas aeruginosa [13]
  MIC: 50 µg/mL (≈ 108 µM)
Candida albicans [14]
  diameter of the inhibition zone (DIZ): 6 mm

## Cc1ccc(-c2cc(C(=O)O)c3ccccc3[n+]2C/C(=N/N=C2/N=C(c3ccc(N)cc3)CS2)c2ccccc2)cc1.[I-]
Aspergillus niger [1]
  diameter of the inhibition zone (DIZ): 8 mm
Escherichia coli [2]
  MIC: > 100 µg/mL
Aspergillus fumigatus [8]
  MIC: > 50 µg/mL
Aspergillus fumigatus [9]
  diameter of the inhibition zone (DIZ): 10 mm
Staphylococcus aureus [3]
  diameter of the inhibition zone (DIZ): 40 mm
Aspergillus niger [10]
  MIC: > 100 µg/mL
Bacillus subtilis [11]
  MIC: > 100 µg/mL
Staphylococcus aureus [4]
  MIC: 3.12 µg/mL
Bacillus subtilis [5]
  diameter of the inhibition zone (DIZ): 6 mm
Pseudomonas aeruginosa [6]
  diameter of the inhibition zone (DIZ): 6 mm
Candida albicans [12]
  MIC: 3.12 µg/mL
Escherichia coli [7]
  diameter of the inhibition zone (DIZ): 6 mm
Pseudomonas aeruginosa [13]
  MIC: > 100 µg/mL
Candida albicans [14]
  diameter of the inhibition zone (DIZ): 40 mm

## O=C(O)c1cc(-c2ccc(Cl)cc2)[n+](C/C(=N/N=C2/N=C(c3ccccc3)CS2)c2ccccc2)c2ccccc12.[I-]
Aspergillus niger [1]
  diameter of the inhibition zone (DIZ): 6 mm
Escherichia coli [2]
  MIC: > 100 µg/mL
Aspergillus fumigatus [8]
  MIC: > 100 µg/mL
Aspergillus fumigatus [9]
  diameter of the inhibition zone (DIZ): 6 mm
Staphylococcus aureus [3]
  diameter of the inhibition zone (DIZ): 15 mm
Aspergillus niger [10]
  MIC: > 100 µg/mL
Bacillus subtilis [11]
  MIC: > 100 µg/mL
Staphylococcus aureus [4]
  MIC: 25 µg/mL
Bacillus subtilis [5]
  diameter of the inhibition zone (DIZ): 6 mm
Pseudomonas aeruginosa [6]
  diameter of the inhibition zone (DIZ): 6 mm
Candida albicans [12]
  MIC: 12.5 µg/mL
Escherichia coli [7]
  diameter of the inhibition zone (DIZ): 6 mm
Pseudomonas aeruginosa [13]
  MIC: > 100 µg/mL
Candida albicans [14]
  diameter of the inhibition zone (DIZ): 19 mm
